The numbers were not newly measured in patent US20180094248A1, “Necroptosis Signaling as a Therapeutic Target for Alzheimer's Disease” (Arizona Board of Regents on behalf of Arizona State …, priority 2016, published 2018), which cites them from elsewhere.

Data set [1] deals with RIPK3 (Homo sapiens, UniProt Q9Y572). The note with it: Kaiser et al., 2013, J. Biol. Chem. 288:31268; cited from earlier work.
In data set [2] the target is T1, MLKL (Homo sapiens, UniProt Q8NB16).
T1 sequence (Q8NB16 1-471): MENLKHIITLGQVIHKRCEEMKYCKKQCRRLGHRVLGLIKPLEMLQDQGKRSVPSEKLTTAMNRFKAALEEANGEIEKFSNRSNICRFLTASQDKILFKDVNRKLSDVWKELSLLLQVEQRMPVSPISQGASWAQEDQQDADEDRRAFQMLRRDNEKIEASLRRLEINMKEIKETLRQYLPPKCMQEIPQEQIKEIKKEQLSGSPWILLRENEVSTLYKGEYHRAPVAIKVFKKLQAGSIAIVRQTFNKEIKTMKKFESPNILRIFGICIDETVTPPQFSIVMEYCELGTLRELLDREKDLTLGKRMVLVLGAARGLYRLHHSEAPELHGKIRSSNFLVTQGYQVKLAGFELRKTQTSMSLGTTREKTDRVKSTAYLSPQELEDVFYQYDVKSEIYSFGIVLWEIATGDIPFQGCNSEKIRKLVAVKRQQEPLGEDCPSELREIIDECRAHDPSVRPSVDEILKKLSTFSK
The note with it: Sun et al., 2012, Cell 148:213-27; cited from earlier work.

Chain of RIPK3 (Q9Y572 whole entry): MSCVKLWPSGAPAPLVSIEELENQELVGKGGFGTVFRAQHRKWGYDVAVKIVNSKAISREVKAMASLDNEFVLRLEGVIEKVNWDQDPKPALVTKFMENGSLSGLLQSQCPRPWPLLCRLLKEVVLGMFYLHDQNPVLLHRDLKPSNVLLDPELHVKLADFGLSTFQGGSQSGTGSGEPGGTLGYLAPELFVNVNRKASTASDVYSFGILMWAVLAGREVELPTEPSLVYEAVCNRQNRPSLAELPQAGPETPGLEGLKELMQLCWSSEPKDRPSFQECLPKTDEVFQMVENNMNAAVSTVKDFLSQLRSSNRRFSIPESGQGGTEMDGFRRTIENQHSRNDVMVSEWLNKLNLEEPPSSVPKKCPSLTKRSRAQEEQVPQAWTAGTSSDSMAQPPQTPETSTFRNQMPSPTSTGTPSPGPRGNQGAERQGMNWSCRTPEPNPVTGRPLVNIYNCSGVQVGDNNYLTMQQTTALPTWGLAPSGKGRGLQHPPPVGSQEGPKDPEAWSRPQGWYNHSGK

Regarding `CC(C)S(=O)(=O)c1ccc2nccc(Nc3ccc4scnc4c3)c2c1` [GSK'872, N-(6-(Isopropylsulfonyl)quinolin-4-yl)benzo[d]thiazol-5-amine], in data set [1], the “inhibition of RIPK3 (selectivity)” value was “selectively inhibits RIPK3”.
For the compound `COc1nccnc1NS(=O)(=O)c1ccc(NC(=O)/C=C/c2ccc([N+](=O)[O-])s2)cc1` [necrosulfonamide, (E)-N-[4-[[(3-Methoxy-2-pyrazinyl)amino]sulfonyl]phenyl]-3-(5-nitro-2-thienyl)-2-propenamide], the “inhibition of MLKL (selectivity)” value in data set [2] is reported as “selectively inhibits MLKL”.
